Literature values, collected in PMC9217999 (Targeted Oncology, 2022).

Key:
Settings in all cases: cited from earlier work
NF1 and inoperable PN = system: NF1 and inoperable PN
recurrent/refractory LGG = system: recurrent/refractory LGG
NF1-associated PN = system: NF1-associated PN

Which results are given for Cn1cnc2c(F)c(Nc3ccc(Br)cc3Cl)c(C(=O)NOCCO)cc21 [selumetinib]?
Confirmed PR rate (NF1 and inoperable PN): 68%; PR rate (NF1 and inoperable PN): 74%; Stable disease (NF1 and inoperable PN): 12%; PR (bidimensional measurements on T2/FLAIR) (recurrent/refractory LGG; 5/25, four with BRAF aberrations): 20%; 2-year PFS (recurrent/refractory LGG): 69%

What does the source list for CC(=O)Nc1cccc(-n2c(=O)n(C3CC3)c(=O)c3c(Nc4ccc(I)cc4F)n(C)c(=O)c(C)c32)c1 [trametinib]?
Responses ongoing (NF1-associated PN; 10/12 responses): 83%; Patients with PR (NF1-associated PN; 12/26 patients, preliminary data): 46%
